Data published in patent US20110217300A1, “Quinazolinone Compounds and Methods of Use Thereof” (priority 2007, published 2011).
Read-outs that look alike come from different tables or passages of the source.

What was measured:
DU145 xenograft = test: Xenograft model; type: in vivo, mice; conditions: DU145, Prostate; procedures and dosages of Examples 106-108
[1] = test system: late-stage solid tumors or hematologic malignancies; test: Phase I clinical study, open-label dose escalation, intravenous; type: in vivo, patients
Experimental: An open-label, dose escalation study of intravenous N-(3-amino-propyl)-3-chloro-N—[(R)-1-(7-chloro-4-oxo-3-phenylamino-3,4-dihydro-quinazolin-2-yl)-but-3-ynyl]-2-fluoro-benzamide was performed. The title compound was administered to patients with late-stage solid tumors or hematologic malignancies. […] There were 3-6 patients per cohort.

MIA-PaCa2 xenograft = test: Xenograft model; type: in vivo, mice; conditions: MIA-PaCa2, Pancreas; procedures and dosages of Examples 106-108
Experimental: Six-week old female athymic nude mice (NCR nu/nu; Charles River Laboratory, Wilmington, Mass.) were acclimated to the animal housing facility for at least 1 week before the study. Efficacy studies were performed in athymic mice bearing PACA2 tumor xenografts to determine the effect of compound on tumor growth. Tumor cells (1×10^7 PACA2 cells/animal) were inoculated subcutaneously on day 0. Tumor dimensions were measured by a digital microcaliper, and tumor volumes were calculated as length×width^2/2. […] Results are expressed as mean tumor volume±SE. To assess differences in tumor size between groups, a Mann-Whitney non-parametric t test was performed and significance was assessed for p values <0.05. Tumor size was evaluated periodically during treatment at the indicated days post-inoculation. […]
Six weeks old female athymic nude mice (NCR nu/nu) received from Charles River Laboratory, acclimated to the animal housing facility for one week before initiation of the study. […] Tumor dimensions were measured three times weekly by a digital microcaliper, and tumor volumes were calculated as length×width^2/2. […] Results are expressed as mean tumor volume±SE. To assess differences in tumor size between groups, student's t test was performed and significance was assessed for p values <0.05. Tumor size was evaluated periodically during treatment at the indicated days post-inoculation. […]

NCI-H460 = test: MTS cell viability assay; type: cell-based, human
How it was run: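 Seed 100-5000 cells/well, rest 16-24 h; add compound diluted from DMSO stocks (final DMSO 0.33%); incubate 72 h at 37° C.; add MTS/PMS 4 h; stop with 1.4% SDS; read […]. GI50 calculated.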

PACA2 tumor xenografts = test: PACA2 tumor xenograft efficacy study (Example 107); type: in vivo, mice; conditions: 3 mg/kg or 12.5 mg/kg intraperitoneally 3x weekly
Experimental: Six weeks old female athymic nude mice (NCR nu/nu) received from Charles River Laboratory, acclimated to the animal housing facility for one week before initiation of the study. Mice were housed in sterile cages of 4 each with autoclaved bedding, provided with autoclaved food and water ad libitum. Efficacy studies were performed in athymic mice bearing PACA2 tumor xenografts to determine the effect of compound on tumor growth. Tumor cells (1×10^7 PACA2 cells/animal) were inoculated subcutaneously on day 0. Tumor dimensions were measured three times weekly by a digital microcaliper, and tumor volumes were calculated as length×width^2/2. When tumors reached a volume of ˜300 mm^3, mice were randomized into groups and treated 3× weekly (Monday-Wednesday-Friday, followed by a 2-day dosing holiday) intraperitoneally. With either vehicle control or 3 mg/kg and 12.5 mg/kg compound formulated in DMA/PEG400/water (20:40:40). Results are expressed as mean tumor volume±SE. To assess differences in tumor size between groups, student's t test was performed and significance was assessed for p values <0.05. Tumor size was evaluated periodically during treatment at the indicated days post-inoculation. Results are represented as the mean of tumor volume in mm^3±SE of several tumors (n=10) in function of the treatment period. […] (See FIG. 1B).

[2] = patients with the tumor types listed in Table 5

For C#CC[C@H](c1nc2cc(Cl)ccc2c(=O)n1Nc1ccccc1)N(CCCN)C(=O)c1cccc(Cl)c1F [Compound 1, N-(3-Amino-propyl)-3-chloro-N—[(R)-1-(7-chloro-4-oxo-3-phenylamino-3,4-dihydro-quinazolin-2-yl)-but-3-ynyl]-2-fluoro-benzamide], the “Xenograft Outcome (approximate percent growth inhibition)” value (DU145 xenograft) was roughly 75%, the “Duration on Study” value ([1]; Cohort 1, 10 mg/m^2 intravenous, Cholangiocarcinoma (bile duct)) was 24 weeks and the “Duration on Study” value ([1]; Cohort 2, 20 mg/m^2 intravenous, Colorectal cancer) was 17 weeks. For the same compound, the “Duration on Study” value ([1]; Cohort 2, 20 mg/m^2 intravenous, Liposarcoma (soft tissue)) was 24 weeks, the “Duration on Study” value ([1]; Cohort 4, 53 mg/m^2 intravenous, Leiomyosarcoma (smooth muscle)) was 39 weeks and the “Duration on Study” value ([1]; Cohort 5, 70 mg/m^2 intravenous, Carcinoid) was 24 weeks. For the same compound, the “Duration on Study” value ([1]; Cohort 6, 100 mg/m^2 intravenous, Colorectal cancer) was 19 weeks, the “Duration on Study” value ([1]; Cohort 9, 280 mg/m^2 intravenous, Endocervical cancer) was 36 weeks and the “Duration on Study” value ([1]; Cohort 9, 280 mg/m^2 intravenous, Malignant Thymoma, patient still on study (active)) was 24 (active) weeks. For the same compound, the response ([1]; endocervical cancer patient, before withdrawing consent) was “minor response”, the disease course ([1]; leiomyosarcoma patient, stayed on study afterwards) was “tumor progression at cycle 6” and the disease status [1, 2] was “stable diseases for an extended period”. For the same compound, the “time patients stayed on study” value [1, 2] was “greater than 16 weeks”, the “Xenograft Outcome (approximate percent growth inhibition)” value (MIA-PaCa2 xenograft) was roughly 90% and the GI50 (NCI-H460; Homo sapiens, NCI-H460, 72 h, read-out: MTS NCI H460 GI50, NCI-H460 non small cell lung, 72 hours) was 360 nM. The GI50 (NCI-H460; Homo sapiens, NCI-H460, read-out: Average GI50, NCI-H460, Large cell lung carcinoma (Table 3)) was 1100 nM, the GI50 (NCI-H460; read-out: Average GI50, NCI-H460, Large cell lung carcinoma (Table 3), listed as I) was 1050 nM and the tolerability of doses (PACA2 tumor xenografts; PACA2 xenograft mice) was “well-tolerated”. The “tumor growth compared to the vehicle control group” value (PACA2 tumor xenografts; tumors ~300 mm^3 at start, FIG. 1B) was “Significant reductions in tumor growth”.
